The values that follow come from patent US6399631B1, “Carbazole neuropeptide Y5 antagonists” (Pfizer Inc., priority 1999, dated 2002).

In one test the target is neuropeptide Y receptor. The conditions noted are these: in vitro test for neuropeptide Y receptor antagonism; cited from earlier work.
A further test addresses T1, Y1 (Homo sapiens, UniProt P25929).
T1 sequence (P25929 1-384): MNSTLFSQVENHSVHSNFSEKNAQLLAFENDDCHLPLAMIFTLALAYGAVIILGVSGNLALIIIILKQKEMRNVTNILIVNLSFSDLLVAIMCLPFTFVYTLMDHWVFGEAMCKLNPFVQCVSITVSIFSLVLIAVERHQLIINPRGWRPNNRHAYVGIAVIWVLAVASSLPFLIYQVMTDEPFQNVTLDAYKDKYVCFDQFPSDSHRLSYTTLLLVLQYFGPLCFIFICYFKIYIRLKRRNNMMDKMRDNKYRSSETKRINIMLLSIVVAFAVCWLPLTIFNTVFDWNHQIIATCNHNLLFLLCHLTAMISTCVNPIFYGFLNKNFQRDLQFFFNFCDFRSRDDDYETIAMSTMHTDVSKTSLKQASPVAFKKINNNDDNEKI
Nature of the test: endogenous NPY response in Bowes melanoma cell host. The note with it: at 10 uM; human Bowes melanoma cell line (HMCB).

What is called IC50 is the concentration that gives 50% inhibition. Take `Cc1cc(N2CCCC2)cc(/C=C/c2cccc(C(F)(F)F)c2)n1` [(E)-2-methyl4-pyrrolidino-6-[2-(3-trifluoromethylphenyl)vinyl]pyridine]: the IC50 on neuropeptide Y receptor was 4.1 nM.

For `NC(N)=NCCC[C@@H](NC(=O)C(c1ccccc1)c1ccccc1)C(=O)NCc1ccc(O)cc1` [BIBP3226], on Y1, the “endogenous NPY response” value was “completely blocked”.
